Laboratory results from patent publication US12077503B2, “Substituted cyclic amides and their use as herbicides” (FMC CORPORATION, priority 2015, dated 2024).

Legend:
Type in all cases: in vivo
[1] = tested on: giant foxtail (Setaria faberii); experiment: Test A preemergence; conditions: Setaria faberi, pre-emergence, 240 h
Outline: (§1)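 Visual injury scores from 0, no effect, to 100, complete control, were assigned versus untreated controls roughly 10 d after treatment in the greenhouse. Test chemicals, formulated with surfactant in a non-phytotoxic solvent, were applied to planted seeds as a preemergence soil spray or postemergence to one- to two-leaf plants 2 to 10 cm tall, in loam–sand soil.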

[2] = tested on: ragweed (common ragweed, Ambrosia elatior); experiment: Test A preemergence; conditions: Ambrosia artemisiifolia, pre-emergence, 240 h
Outline: as §1

[3] = tested on: pigweed (Amaranthus retroflexus); experiment: Test A preemergence; conditions: Amaranthus retroflexus, pre-emergence, 240 h
[4] = tested on: ryegrass, Italian (Italian ryegrass, Lolium multiflorum); experiment: Test A preemergence; conditions: Lolium multiflorum, pre-emergence, 240 h
Outline: as §1

[5] = tested on: barnyardgrass (Echinochloa crus-galli); experiment: Test A preemergence; conditions: Echinochloa crus-galli, pre-emergence, 240 h
Outline: as §1

Kochia (Kochia scoparia) = experiment: Test A preemergence; conditions: Bassia scoparia, pre-emergence, 240 h
Outline: as §1

[6] = tested on: blackgrass (Alopecurus myosuroides); experiment: Test A postemergence; conditions: Alopecurus myosuroides, post-emergence, 240 h, read-out: Plant response rating, Blackgrass
Outline: as §1

[7] = tested on: giant foxtail (Setaria faberii); experiment: Test A postemergence; conditions: Setaria faberi, post-emergence, 240 h, postemergence, approx. 10 d
Outline: as §1

[8] = tested on: Galium (catchweed bedstraw, Galium aparine); experiment: Test A postemergence; conditions: Galium, post-emergence, 240 h, postemergence, approx. 10 d
Outline: as §1

[9] = tested on: ragweed (common ragweed, Ambrosia elatior); experiment: Test A postemergence; conditions: Ambrosia artemisiifolia, post-emergence, 240 h, postemergence, approx. 10 d
Outline: as §1

[10] = tested on: wheat (Triticum aestivum); experiment: Test A postemergence; conditions: Triticum aestivum, post-emergence, 240 h, postemergence, approx. 10 d
Outline: as §1

[11] = tested on: pigweed (Amaranthus retroflexus); experiment: Test A postemergence; conditions: Amaranthus retroflexus, post-emergence, 240 h, postemergence, approx. 10 d
Outline: as §1

corn (Zea mays) = experiment: Test A postemergence; conditions: Zea mays, post-emergence, 240 h
Outline: as §1

[12] = tested on: ryegrass, Italian (Italian ryegrass, Lolium multiflorum); experiment: Test A postemergence; conditions: Lolium multiflorum, post-emergence, 240 h, postemergence, approx. 10 d
Outline: as §1

[13] = tested on: barnyardgrass (Echinochloa crus-galli); experiment: Test A postemergence; conditions: Echinochloa crus-galli, post-emergence, 240 h, read-out: Plant response rating, Barnyardgrass
Outline: as §1

[14] = 125 g ai/ha, Postemergence, visual injury after approximately 10 d, 0 to 100 scale where 0 is no effect and 100 is complete control
[15] = 500 g ai/ha, postemergence, visual injury, 0 to 100 scale (0 no effect, 100 complete control), approx. 10 d

`Cc1ccc([C@H]2CNC(=O)[C@@H]2C(=O)Nc2ccccc2F)cc1C` [Compound 1033] showed a pest or weed control at 125 g/ha ([1]; 125 g ai/ha, Preemergence, visual injury rating after approximately 10 d, read-out: Foxtail, Giant plant response rating (0 to 100 scale, 0 is no effect, 100 is complete control)) of 70%, a pest or weed control at 500 g/ha ([1]; 500 g ai/ha, preemergence, visual injury rating about 10 d after treatment, 0 to 100 scale (0 no effect, 100 complete control), read-out: Foxtail, Giant plant response rating) of 90% and a pest or weed control at 125 g/ha ([2]; 125 g ai/ha, Preemergence, visual injury rating after approximately 10 d, read-out: Ragweed plant response rating (0 to 100 scale, 0 is no effect, 100 is complete control)) of 0%. For the same compound, the pest or weed control at 500 g/ha ([2]; 500 g ai/ha, preemergence, visual injury rating about 10 d after treatment, 0 to 100 scale (0 no effect, 100 complete control), read-out: Ragweed plant response rating) was 10%, the pest or weed control at 125 g/ha ([3]; 125 g ai/ha, Preemergence, visual injury rating after approximately 10 d, read-out: Pigweed plant response rating (0 to 100 scale, 0 is no effect, 100 is complete control)) was 0% and the pest or weed control at 500 g/ha ([3]; 500 g ai/ha, preemergence, visual injury rating about 10 d after treatment, 0 to 100 scale (0 no effect, 100 complete control), read-out: Pigweed plant response rating) was 0%. It also gave a pest or weed control at 125 g/ha ([4]; 125 g ai/ha, Preemergence, visual injury rating after approximately 10 d, read-out: Ryegrass, Italian plant response rating (0 to 100 scale, 0 is no effect, 100 is complete control)) of 0%, a pest or weed control at 500 g/ha ([4]; 500 g ai/ha, preemergence, visual injury rating about 10 d after treatment, 0 to 100 scale (0 no effect, 100 complete control), read-out: Ryegrass, Italian plant response rating) of 50% and a pest or weed control at 125 g/ha ([5]; 125 g ai/ha, Preemergence, visual injury rating after approximately 10 d, read-out: Barnyardgrass plant response rating (0 to 100 scale, 0 is no effect, 100 is complete control)) of 90%. It also gave a pest or weed control at 500 g/ha ([5]; 500 g ai/ha, preemergence, visual injury rating about 10 d after treatment, 0 to 100 scale (0 no effect, 100 complete control), read-out: Barnyardgrass plant response rating) of 90%, a pest or weed control at 125 g/ha (Kochia (Kochia scoparia); 125 g ai/ha, Preemergence, visual injury rating after approximately 10 d, read-out: Kochia plant response rating (0 to 100 scale, 0 is no effect, 100 is complete control)) of 0% and a pest or weed control at 500 g/ha (Kochia (Kochia scoparia); 500 g ai/ha, preemergence, visual injury rating about 10 d after treatment, 0 to 100 scale (0 no effect, 100 complete control), read-out: Kochia plant response rating) of 60%. The pest or weed control at 125 g/ha [6, 14] was 0%, the pest or weed control at 500 g/ha [6, 15] was 40% and the pest or weed control at 125 g/ha ([7]; 125 g ai/ha, visual injury on 0 to 100 scale (0 no effect, 100 complete control), read-out: Foxtail, Giant plant response rating) was 30%. It also gave a pest or weed control at 500 g/ha ([7]; 500 g ai/ha, visual injury, 0 to 100 scale (0 no effect, 100 complete control), read-out: Plant response rating, Foxtail, Giant) of 80%, a pest or weed control at 125 g/ha ([8]; 125 g ai/ha, visual injury on 0 to 100 scale (0 no effect, 100 complete control), read-out: Galium plant response rating) of 40% and a pest or weed control at 500 g/ha ([8]; 500 g ai/ha, visual injury, 0 to 100 scale (0 no effect, 100 complete control), read-out: Plant response rating, Galium) of 60%. It also gave a pest or weed control at 125 g/ha ([9]; 125 g ai/ha, visual injury on 0 to 100 scale (0 no effect, 100 complete control), read-out: Ragweed plant response rating) of 0%, a pest or weed control at 500 g/ha ([9]; 500 g ai/ha, visual injury, 0 to 100 scale (0 no effect, 100 complete control), read-out: Plant response rating, Ragweed) of 30% and a plant injury at 125 g/ha ([10]; 125 g ai/ha, visual injury on 0 to 100 scale (0 no effect, 100 complete control), read-out: Wheat plant response rating) of 0%. The plant injury at 500 g/ha ([10]; 500 g ai/ha, visual injury, 0 to 100 scale (0 no effect, 100 complete control), read-out: Plant response rating, Wheat) was 0%, the pest or weed control at 125 g/ha ([11]; 125 g ai/ha, visual injury on 0 to 100 scale (0 no effect, 100 complete control), read-out: Pigweed plant response rating) was 0% and the pest or weed control at 500 g/ha ([11]; 500 g ai/ha, visual injury, 0 to 100 scale (0 no effect, 100 complete control), read-out: Plant response rating, Pigweed) was 0%. The Corn plant response rating (crop injury, 0 = no effect, 100 = complete kill) at 125 g/ha (corn (Zea mays); [14]) was 0%, the Corn plant response rating (crop injury, 0 = no effect, 100 = complete kill) at 500 g/ha (corn (Zea mays); [15]) was 40% and the pest or weed control at 125 g/ha ([12]; 125 g ai/ha, visual injury on 0 to 100 scale (0 no effect, 100 complete control), read-out: Ryegrass, Italian plant response rating) was 0%. The pest or weed control at 500 g/ha ([12]; 500 g ai/ha, visual injury, 0 to 100 scale (0 no effect, 100 complete control), read-out: Plant response rating, Ryegrass, Italian) was 20%, the pest or weed control at 125 g/ha [13, 14] was 90% and the pest or weed control at 500 g/ha [13, 15] was 90%.
